# Legend:
# [1] = molecular target: Multidrug resistance-associated protein 1 (Homo sapiens, UniProt P33527); assay: TP_TRANSPORTER: inhibition of DNP-SG uptake (DNP-SG: 10 uM, Glutathione S-conjugate of ethacrynic acid: 10uM) in membrane vesicles from S1(MRP) cells; assay type: functional, cell membranes, Membrane vesicle; parameters: scale not given: the % may be the effect or the level left
# [2] = molecular target: Multidrug resistance-associated protein 1 (MRP1) (Homo sapiens, UniProt P33527); assay: TP_TRANSPORTER: inhibition of DNP-SG uptake (DNP-SG: 10 uM, 4-Glutathionyl cyclophosphamide: 1000uM) in membrane vesicles from S1(MRP) cells; assay type: functional, cell membranes, Membrane vesicle; parameters: scale not given: the % may be the effect or the level left; details: probe DNP-SG, read-out: Activity
# Chain of Multidrug resistance-associated protein 1 (MRP1) (P33527 whole entry): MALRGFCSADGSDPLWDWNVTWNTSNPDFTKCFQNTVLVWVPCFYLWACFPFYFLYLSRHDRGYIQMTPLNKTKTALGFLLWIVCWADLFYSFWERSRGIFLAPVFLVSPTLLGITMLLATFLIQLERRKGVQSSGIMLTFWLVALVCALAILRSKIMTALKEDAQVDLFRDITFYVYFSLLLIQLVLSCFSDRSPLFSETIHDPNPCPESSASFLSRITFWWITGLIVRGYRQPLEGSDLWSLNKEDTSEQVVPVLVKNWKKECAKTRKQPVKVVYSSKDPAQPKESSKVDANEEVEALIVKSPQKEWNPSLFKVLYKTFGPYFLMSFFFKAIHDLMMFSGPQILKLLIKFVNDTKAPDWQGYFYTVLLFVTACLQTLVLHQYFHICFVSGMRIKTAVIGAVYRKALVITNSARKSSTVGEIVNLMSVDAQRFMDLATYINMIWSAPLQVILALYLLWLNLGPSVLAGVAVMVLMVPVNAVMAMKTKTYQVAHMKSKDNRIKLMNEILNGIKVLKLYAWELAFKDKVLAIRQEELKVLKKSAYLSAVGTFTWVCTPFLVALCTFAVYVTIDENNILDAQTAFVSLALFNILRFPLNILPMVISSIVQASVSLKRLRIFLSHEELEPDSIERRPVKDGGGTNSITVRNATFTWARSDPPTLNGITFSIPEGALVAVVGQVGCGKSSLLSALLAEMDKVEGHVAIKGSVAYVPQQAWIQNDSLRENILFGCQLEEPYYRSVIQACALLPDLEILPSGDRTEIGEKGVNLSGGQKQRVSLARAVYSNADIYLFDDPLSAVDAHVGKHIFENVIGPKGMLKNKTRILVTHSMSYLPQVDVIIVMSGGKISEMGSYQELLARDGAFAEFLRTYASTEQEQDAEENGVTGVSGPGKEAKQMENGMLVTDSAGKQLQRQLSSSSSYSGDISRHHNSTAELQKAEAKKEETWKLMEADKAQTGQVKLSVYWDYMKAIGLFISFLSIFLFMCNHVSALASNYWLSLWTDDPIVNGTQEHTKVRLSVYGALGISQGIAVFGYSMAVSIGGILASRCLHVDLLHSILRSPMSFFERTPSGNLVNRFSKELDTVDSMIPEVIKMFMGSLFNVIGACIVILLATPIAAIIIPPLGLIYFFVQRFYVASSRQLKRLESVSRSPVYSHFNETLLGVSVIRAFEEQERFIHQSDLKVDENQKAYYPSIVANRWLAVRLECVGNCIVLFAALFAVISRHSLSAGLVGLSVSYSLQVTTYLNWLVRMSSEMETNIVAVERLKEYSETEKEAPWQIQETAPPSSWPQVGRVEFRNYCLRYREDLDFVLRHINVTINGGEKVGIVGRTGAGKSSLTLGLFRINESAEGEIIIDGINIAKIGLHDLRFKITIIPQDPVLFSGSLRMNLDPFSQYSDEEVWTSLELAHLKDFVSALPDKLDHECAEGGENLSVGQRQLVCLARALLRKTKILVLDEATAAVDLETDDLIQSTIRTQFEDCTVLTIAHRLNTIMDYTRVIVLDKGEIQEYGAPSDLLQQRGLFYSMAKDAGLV
# Chain of Multidrug resistance-associated protein 1 (P33527 whole entry): as above
Activity [1] [%],SMILES,activity at 1000 µM [2] [%]
4,CCC(CSC[C@@H](NC(=O)CC[C@H](N)C(=O)O)C(=O)NCC(=O)O)C(=O)c1ccc(OCC(=O)O)c(Cl)c1Cl (some centres not stated),
,NC(CCC(=O)NC(CSC1CCOP(=O)(N(CCCl)CCCl)N1)C(=O)NCC(=O)O)C(=O)O (configuration not stated),44
